{
  "source": "patent US12161620B2",
  "about": "“Devices and methods for facilitating and controlling use of a medication” (priority 2013, dated 2024)",
  "key": {"[1]": {"conditions": "cited from earlier work"}, "[2]": {"conditions": "taste detection; cited from earlier work"}, "[3]": {"conditions": "pungency; cited from earlier work"}, "[4]": {"conditions": "PubChem; cited from earlier work"}, "[5]": {"assay": "Taste of sucrose octaacetate solution before and after lime treatment (Example 10)", "conditions": "60 ppm in water"}, "[6]": {"conditions": "in vivo; cited from earlier work"}, "[7]": {"conditions": "cited from earlier work", "remark": "listed apart in the source"}, "[8]": {"assay": "Taste of denatonium saccharide solution before and after activated carbon treatment (Example 11)", "conditions": "90 ppm in water", "method": "Example 11. In a lab evaluation, 90 ppm denatonium saccharide in water was prepared. To 40 mL samples were added 100 mg and […], respectively, of powdered activated carbon Ecosorb EC-947. The samples were stirred for about 2 days to equilibrate."}},
  "note": "Read-outs that look alike come from different tables or passages of the source.",
  "data": [
    {"molecule": "CN(C)c1ccc(C(=C2C=CC(=[N+](C)C)C=C2)c2ccc(N(C)C)cc2)cc1.[Cl-]", "note": "[Gentian Violet]", "values": [
      {"measurement": "solubility in water", "setting": "[1]", "value": "soluble in water"}
    ]},
    {"molecule": "CC[N+](CC)(CC(=O)Nc1c(C)cccc1C)Cc1ccccc1", "note": "[denatonium]", "values": [
      {"measurement": "level at which detectable", "setting": "[2]", "value": 0.01, "unit": "ppm"}
    ]},
    {"molecule": "COc1cc(CNC(=O)CCCC/C=C/C(C)C)ccc1O", "note": "[Capsaicin, capsaicin]", "values": [
      {"measurement": "threshold of effect", "setting": "[3]", "value": "about 0.02 ppm"},
      {"measurement": "LogP", "setting": "[4]", "value": 3.6},
      {"measurement": "solubility in alcohol", "setting": "[1]", "value": "soluble in alcohol"},
      {"measurement": "water solubility", "setting": "[1]", "value": "~10", "unit": "ppm"}
    ]},
    {"molecule": "CC(=O)OC[C@H]1O[C@@](COC(C)=O)(O[C@H]2O[C@H](COC(C)=O)[C@@H](OC(C)=O)[C@H](OC(C)=O)[C@H]2OC(C)=O)[C@@H](OC(C)=O)[C@@H]1OC(C)=O", "note": "[sucrose octaacetate]", "values": [
      {"measurement": "taste of untreated solution", "setting": "[5]", "value": "intensely bitter"},
      {"measurement": "dose that is not lethal", "setting": "[6]", "value": 5000, "unit": "mg/kg"},
      {"measurement": "level at which detectable", "setting": "[2]", "value": 10, "unit": "ppm"},
      {"measurement": "LogP", "setting": "[4]", "value": "−0.9"},
      {"measurement": "solubility in alcohol", "setting": "[1]", "value": "very soluble in alcohols"},
      {"measurement": "water solubility", "setting": "[1]", "value": 900, "unit": "ppm"},
      {"measurement": "water solubility", "setting": "[1]; listed as Sucrose octaacetate", "value": "about 900 ppm"}
    ]},
    {"molecule": "O=C(/C=C/C=C/c1ccc2c(c1)OCO2)N1CCCCC1", "note": "[Piperine, piperine]", "values": [
      {"measurement": "threshold of effect", "setting": "[3]", "value": "about 1.35 ppm"},
      {"measurement": "LogP", "setting": "[4]", "value": 3.5},
      {"measurement": "solubility in alcohol", "setting": "[1]", "value": "soluble in alcohol"},
      {"measurement": "water solubility", "setting": "[1]", "value": 40, "unit": "ppm"}
    ]},
    {"molecule": "CC(=O)OCC(COC(C)=O)OC(C)=O", "note": "[Triacetin, triacetin]", "values": [
      {"measurement": "half-life", "setting": "[7]; pH 9", "value": "< 24", "unit": "h"},
      {"measurement": "pH around which stable", "setting": "[7]; stable only around this pH", "value": "~4"}
    ]},
    {"molecule": "CC[N+](CC)(CC(=O)Nc1c(C)cccc1C)Cc1ccccc1.O=C1[N-]S(=O)(=O)c2ccccc21", "note": "[denatonium saccharide]", "values": [
      {"measurement": "taste of untreated sample", "setting": "[8]", "value": "intensely bitter"},
      {"measurement": "duration of taste after administration", "setting": "[8]; untreated, about 0.1 mL on the tongue", "value": "at least two hours"}
    ]},
    {"molecule": "CCN(Cc1cccc(S(=O)(=O)O)c1)c1ccc(C(=C2C=CC(=[N+](CC)Cc3cccc(S(=O)(=O)O)c3)C=C2)c2ccccc2S(=O)(=O)[O-])cc1", "note": "[Brilliant Blue]", "values": [
      {"measurement": "solubility in water", "setting": "[1]", "value": "water-soluble"}
    ]}
  ]
}
